From PubChem BioAssay AID2060342 (Molecular Pharmacology Branch, DTP, NCI, 2025)
Several values for one entry are separate records, joined by “and”; a condition that tells them apart may be missing. Equal entries are not always repeated.

Test system: 171881-019-R-J1-PDC multicell spheroid viability
Assay: Anticancer human tumor 171881-019-R-J1-PDC patient-derived invasive breast carcinoma cell line growth inhibition [IpAb]
Settings: for viability, T/C: stronger effect = lower value
Description: Combinatorial screen of targeted agents with ipatasertib and abemaciclib in multi-cell type tumor spheroids
A high-throughput screen of multi-cell type tumor spheroids was designed to identify active combinations of targeted small molecules and ipatasertib or abemaciclib. Complex spheroids include a stromal component modeled by human endothelial cells (HUVEC) and fibroblasts modeled by human mesenchymal stem cells (MSCs). The concentration ranges selected for each drug and investigational agent were based upon clinically achievable concentrations if the clinical Cmax of the agent was known.
Compounds. The drugs and investigational agents: ipatasertib (NSC767898), abemaciclib(NSC768073), selumetinib (NSC741078), trametinib (758246), adavosertib (NSC754352), everolimus (NSC733504), sapanisertib (NSC764658), vemurafenib (NSC761431), venetoclax (NSC766270), copanlisib (NSC809693), apelisib (NSC765974), palbociblib (NSC758247), vemurafenib (NSC761431), dabrafenib (NSC764134), ravoxertinib (NSC781343), BMS-387032 (NSC767048), sotorasib (NSC818433), talazoparib (NSC767125) and afursertib (NSC778305), were obtained from the National Cancer Institute (NCI) Developmental Therapeutics Program Chemical Repository. The FDA-approved anticancer drug set is available from the NCI Developmental Therapeutics Program. […] The stock solutions were prepared in dimethyl sulfoxide (DMSO, Sigma-Aldrich, St. Louis, MO, cat. D2650) at 800-fold the tested concentration and stored at -70 degrees C prior to their use. All drugs and investigational agents were tested over a range starting from a high concentration at or near the clinical Cmax and decreasing in half-log increments. If the clinical Cmax for an agent had not been determined, the highest concentration tested was 10 microM.
NCI60 Cell Culture. NCI60 cell lines were obtained from the NCI Developmental Therapeutics Program Tumor Repository. For each lot of cells, the Repository performed Applied Biosystems AmpFLSTR Identifiler testing with PCR amplification to confirm consistency with the published Identifier STR profile for each cell line. Cells were kept in continuous culture for no more than 20 passages. The optimal seeding densities for each of the cell lines at each time point assessed were determined prior to performing the concentration response studies. Briefly, the NCI60 human tumor lines were grown as monolayers in RPMI 1640 medium supplemented with 10% FBS and 2 mmol/L L-glutamine.
An additional 9 lines were from the NCI60 cell line panel including MDA-MB-231 breast carcinoma, MDA-MB-468 breast carcinoma, MCF7 breast carcinoma, Hs578T breast carcinoma, MALME-3M melanoma, SK-MEL-2 melanoma, SK-OV-3 ovarian carcinoma, DU-145 prostate carcinoma, PC-3 prostate carcinoma, all cell lines along with major genetic alterations are listed on Table 2. Pooled donor human umbilical vein endothelial cells (HUVEC, Lonza, cat. CC-2519) and human mesenchymal stem cells (hMSC, Lonza, cat. PT-2501) were purchased from Lonza (Walkersville, MD).
PDMR cell lines were grown in complete medium (DC medium): Dulbecco's modified Eagle's medium (DMEM)/F12 supplemented with 5% fetal bovine serum (FBS), 2 mM L-glutamine, 100 U/mL penicillin and 100 µg/ml streptomycin, 0.4 µg/ml hydrocortisone, 10 ng/ml epidermal growth factor (EGF) recombinant human protein, 24 µg/mL adenine, and 0.1 mg/mL primocin. During culture from frozen stock vials, PDMR cells were cultured in the same medium containing 10 µM Y-27632 (see Table 3). The PDCs were cultured in complete DMEM/F12 media without 10 microM Y-27632 dihydrochloride for at least two passages prior to the screen. The pooled donor HUVEC and hMSC were cultured in endothelial cell growth medium 2 (PromoCell, Heidelberg, Germany, cat. C-22011) and mesenchymal stem cell growth medium 2 (PromoCell, cat. C-28009), respectively. For all experiments, HUVEC and hMSC were used at passages </=5.
[…]
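Also: spheroids exposed to the agents for seven days before readout.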

Compound	viability, T/C (compound 0.0316 µM)	viability, T/C (compound 0.1 µM)	viability, T/C (compound 0.316 µM)	viability, T/C (compound 1 µM)	viability, T/C (compound 3.16 µM)	viability, T/C (compound 10 µM)	IC50 (curve of compound)	also measured
C=CC(=O)N1CCN(c2nc(=O)n(-c3c(C)ccnc3C(C)C)c3nc(-c4c(O)cccc4F)c(F)cc23)C(C)C1 (stereo unspecified)	98.7% and 101%	92.3% and 95.8%	99% and 106%	94.1% and 95.3%	93.6% and 84.7%	35.2% and 31.8%	7470 nM and 6740 nM	
C=CCn1c(=O)c2cnc(Nc3ccc(N4CCN(C)CC4)cc3)nc2n1-c1cccc(C(C)(C)O)n1	89.9% and 111%	106% and 111%	104% and 133%	35.1% and 43.7%	28.2% and 27.2%	27.9% and 24.9%	768 nM and 786 nM	
CC(=O)c1c(C)c2cnc(Nc3ccc(N4CCNCC4)cn3)nc2n(C2CCCC2)c1=O							> 300 nM	viability, T/C (compound 0.000949 µM): 103% and 97.8%; viability, T/C (compound 0.003 µM): 92.6% and 92.2%; viability, T/C (compound 0.00949 µM): 102% and 103%; viability, T/C (compound 0.03 µM): 99.4% and 94%; viability, T/C (compound 0.0949 µM): 105% and 96.1%; viability, T/C (compound 0.3 µM): 115% and 105%
CC(C)(C)c1cnc(CSc2cnc(NC(=O)C3CCNCC3)s2)o1							202 nM and 176 nM	viability, T/C (compound 0.00949 µM): 96% and 96.9%; viability, T/C (compound 0.03 µM): 109% and 96.1%; viability, T/C (compound 0.0949 µM): 116% and 119%; viability, T/C (compound 0.3 µM): 20.1% and 3.63%; viability, T/C (compound 0.949 µM): 0.52% and 0.41%; viability, T/C (compound 3 µM): 0.65% and 0.81%
CC(C)n1nc(-c2ccc3oc(N)nc3c2)c2c(N)ncnc21	4.54% and 3.87%	2.72% and 2.73%					6.27 nM and 4.58 nM	viability, T/C (compound 0.000316 µM): 109% and 103%; viability, T/C (compound 0.001 µM): 114% and 106%; viability, T/C (compound 0.00316 µM): 82.1% and 64%; viability, T/C (compound 0.01 µM): 28.1% and 18.6%
CC1(C)CCC(CN2CCN(c3ccc(C(=O)NS(=O)(=O)c4ccc(NCC5CCOCC5)c([N+](=O)[O-])c4)c(Oc4cnc5[nH]ccc5c4)c3)CC2)=C(c2ccc(Cl)cc2)C1	107% and 93.6%	102% and 84.1%	93.8% and 78.3%	92.5% and 66.3%	89.8% and 87.8%	23.9% and 16.5%	6280 nM and 5550 nM	
CCCS(=O)(=O)Nc1ccc(F)c(C(=O)c2c[nH]c3ncc(-c4ccc(Cl)cc4)cc23)c1F	111% and 90.2%	95.2% and 83%	86.9% and 93.1%	90.1% and 80.4%	78.3% and 72.6%	76.2% and 87.7%	> 10000 nM	
CCN1CCN(Cc2ccc(Nc3ncc(F)c(-c4cc(F)c5nc(C)n(C(C)C)c5c4)n3)nc2)CC1	105% [middle of 13 runs]	116% [middle of 13 runs]		149% [middle of 13 runs]				viability, T/C (compound 0.01 µM): 91.6% [middle of 13 runs]; IC50 (compound alone, run of 05/18/2021): > 1000 nM
COc1c(OCCCN2CCOCC2)ccc2c3n(c(=NC(=O)c4cnc(N)nc4)nc12)CCN3	17.4% and 33.4%	4.32% and 7.03%	1% and 1.49%	1.51% and 1.79%			14.6 nM and 20.2 nM	viability, T/C (compound 0.00316 µM): 109% and 115%; viability, T/C (compound 0.01 µM): 65.8% and 77.7%
Cc1nc(NC(=O)N2CCCC2C(N)=O)sc1-c1ccnc(C(C)(C)C(F)(F)F)c1 (stereo unspecified)	117% and 108%	128% and 98.1%	84.2% and 67.8%	36.8% and 38.8%	16.5% and 12.6%	2.78% and 1.93%	734 nM and 640 nM	
Cn1cnc2c(F)c(Nc3ccc(Br)cc3Cl)c(C(=O)NOCCO)cc21							1480 nM and 935 nM	viability, T/C (compound 0.00949 µM): 113% and 108%; viability, T/C (compound 0.03 µM): 106% and 96.2%; viability, T/C (compound 0.0949 µM): 124% and 98%; viability, T/C (compound 0.3 µM): 117% and 99.3%; viability, T/C (compound 0.949 µM): 70.1% and 49.4%; viability, T/C (compound 3 µM): 18.2% and 11.6%
Cn1ncc(Cl)c1-c1cc(C(=O)NC(CN)Cc2cccc(F)c2)sc1Cl (stereo unspecified)	107% and 112%	64.8% and 67.2%	29.7% and 27.4%	11.8% and 13.5%	3.57% and 3.17%	0.84% and 0.66%	163 nM and 167 nM	
Cn1nccc1Nc1nccc(-c2ccn(C(CO)c3ccc(Cl)c(F)c3)c(=O)c2)n1 (stereo unspecified)	107% and 117%	108% and 112%	77.1% and 79%	39.2% and 41.8%	22.2% and 22.1%	19.1% and 18.8%	713 nM and 761 nM	
Cn1ncnc1[C@H]1c2n[nH]c(=O)c3cc(F)cc(c23)N[C@@H]1c1ccc(F)cc1	109% and 111%	128% and 123%					> 100 nM	viability, T/C (compound 0.000316 µM): 100% and 93.4%; viability, T/C (compound 0.001 µM): 111% and 93.9%; viability, T/C (compound 0.00316 µM): 116%; viability, T/C (compound 0.01 µM): 108% and 101%
